What all share (format): cell-based
The target in one experiment is T1, GluRδ2^Lc D782A (Rattus norvegicus, UniProt Q63226, A654T/D782A).
T1 sequence (Q63226 24-1007 A654T/D782A): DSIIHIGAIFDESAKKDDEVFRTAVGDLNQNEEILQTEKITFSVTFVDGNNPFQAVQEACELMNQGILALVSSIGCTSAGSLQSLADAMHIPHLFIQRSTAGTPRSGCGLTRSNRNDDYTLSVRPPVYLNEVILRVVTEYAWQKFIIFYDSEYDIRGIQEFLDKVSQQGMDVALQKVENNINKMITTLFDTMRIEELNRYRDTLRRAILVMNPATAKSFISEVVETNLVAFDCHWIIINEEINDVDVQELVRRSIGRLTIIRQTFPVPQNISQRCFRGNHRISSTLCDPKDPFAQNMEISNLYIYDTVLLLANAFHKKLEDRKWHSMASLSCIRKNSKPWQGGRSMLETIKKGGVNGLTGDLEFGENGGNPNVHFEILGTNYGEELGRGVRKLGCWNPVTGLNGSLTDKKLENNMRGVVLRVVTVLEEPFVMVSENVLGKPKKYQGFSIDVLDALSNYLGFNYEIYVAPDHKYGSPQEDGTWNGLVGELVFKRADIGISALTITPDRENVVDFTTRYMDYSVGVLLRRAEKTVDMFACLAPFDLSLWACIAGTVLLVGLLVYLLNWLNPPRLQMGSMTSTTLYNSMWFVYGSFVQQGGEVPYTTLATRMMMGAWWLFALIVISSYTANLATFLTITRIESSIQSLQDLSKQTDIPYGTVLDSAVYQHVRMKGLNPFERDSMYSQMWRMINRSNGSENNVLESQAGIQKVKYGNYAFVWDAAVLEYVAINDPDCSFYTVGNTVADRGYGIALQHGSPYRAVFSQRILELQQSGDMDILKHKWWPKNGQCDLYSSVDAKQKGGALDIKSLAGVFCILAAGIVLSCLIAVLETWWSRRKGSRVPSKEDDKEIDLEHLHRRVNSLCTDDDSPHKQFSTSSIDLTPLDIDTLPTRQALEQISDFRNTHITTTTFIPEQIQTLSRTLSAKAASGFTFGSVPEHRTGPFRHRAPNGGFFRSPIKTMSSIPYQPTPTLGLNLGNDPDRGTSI
The experiment in a line: Two-electrode voltage-clamp recordings in Xenopus oocytes, GluRδ2^Lc D782A.

Another experiment has as its target T2, GluRδ2^Lc P528C+L789C (Rattus norvegicus, UniProt Q63226, A654T/L789C/P528C).
T2 sequence (Q63226 24-1007 P528C/A654T/L789C): T1 sequence (Q63226 24-1007 A654T/D782A) with P505C, A759D, L766C
Nature of the experiment: Two-electrode voltage-clamp recordings in Xenopus oocytes, GluRδ2^Lc P528C+L789C. In general terms: Two-electrode voltage clamp is typically applied to oocytes expressing channels or transporters.

The next experiment addresses T3, GluRδ2^Lc E531C+D782C (Rattus norvegicus, UniProt Q63226, A654T/D782C/E531C).
T3 sequence (Q63226 24-1007 E531C/A654T/D782C): T1 sequence (Q63226 24-1007 A654T/D782A) with E508C, A759C
Nature of the experiment: Two-electrode voltage-clamp recordings in Xenopus oocytes, GluRδ2^Lc E531C+D782C.

Positions count from the first letter of the chain named.

Consider `[Ca+2]` [Ca^2+, calcium], for which the “Ca^2+ potentiation (relative to baseline)” value at GluRδ2^Lc D782A (3 mM Ca^2+, ± SEM) came to 0.8 ± 0.02 fold; on GluRδ2^Lc P528C+L789C (3 mM Ca^2+, ± SEM), 0.9 ± 0.01 fold; at GluRδ2^Lc E531C+D782C (3 mM Ca^2+, ± SEM), 0.9 ± 0.01 fold.
With `N[C@H](CO)C(=O)O` [D-serine], the “D-serine + 0 mM Ca^2+ nH” value at GluRδ2^Lc D782A (Hill slope, 0 mM Ca^2+) was determined as 1.0; on GluRδ2^Lc P528C+L789C (Hill slope, 0 mM Ca^2+), 1.1; at GluRδ2^Lc E531C+D782C (Hill slope, 0 mM Ca^2+) it was 0.8. In addition, the “D-serine + 3 mM Ca^2+ nH” value on GluRδ2^Lc D782A (Hill slope, 3 mM Ca^2+) is on record as 1.1; at GluRδ2^Lc P528C+L789C (Hill slope, 3 mM Ca^2+), 0.8; on GluRδ2^Lc E531C+D782C (Hill slope, 3 mM Ca^2+), 0.8.

Values taken from paper PMC2806602 (The Journal of neuroscience : the official journal of the …, 2009).
